# Where two headings read alike, the source gives them in different places.
# Experiments:
# [1] = Behavior of compound A in blood flow: blood and urine samples determined by electronic spin resonance after the administration; details: for clearance (in words) / excretion from the kidney: dog, in vivo
# Protocol: Thus, within a certain period after the administration, samples of blood and urine were collected and "a concentration of the compound A which was unchanged and retained" and "a total concentration after oxidization with potassium ferricyanide" were determined by means of an electronic spin resonance (RF80; Nippon Denshi).
# [2] = tested on: circumflex branch of the left coronary artery; assay: Comparative Example 1: blood flow after administration of compound A reduced with ascorbic acid; assay type: in vivo, mongrel dogs
# Protocol: The operation of Example 4 was conducted by administering the compound A wherefrom the N-oxyl radical was inactivated only after reducing with ascorbic acid. […] It is therefore apparent that the pharmacological action was due to the radical in the molecule and that the compounds of the present invention are the pharmaceuticals of a new type.
# [3] = tested on: ring samples of the circumflex branch (coronary artery); assay: In vitro test: relaxation of ring samples of the circumflex branch precontracted by prostaglandin F2α (isometric tension); set-up: species or system mongrel adult dogs; details: for EC50: Canis lupus familiaris, read-out: ED50 value expressed in terms of a minus logarithm of the administered concentration, endothelium absent (converted)
# Protocol: After an anesthetization of the mongrel adult dogs, the extracted ring samples (outer diameter: about 2 mm) of the circumflex branch were prepared, hung in a chamber filled with 3 ml of a Krebs buffer which was oxidated (with 95% oxygen and 5% […]), balanced with an initial tension of 2 g and subjected to a precontraction by prostaglandin F2α (concentration in the chamber: 2 μM).
# To this was added the compound A on an accumulated manner whereby its concentration in the chamber became from 1 μM to 1 mM and the resulting changes in the isometric tension were measured using a tranducer (manufactured by Minebea) and recorded in a pen recorder (SR6211 manufactured by Graphtec). Incidentally, the changes in the tension were evaluated on a basis that the precontraction by prostaglandin F2α was 100%. In some of the samples, the endothelium was exfoliated (confirmed by a disappearance of the relaxation to 1 μM of acetylcholine) and, furthermore, they were subjected to a pretreatment with Methylene Blue, an inhibitor for a soluble guanylate cyclase, (concentration in the chamber: 10 μM; administered 30 minutes before) whereby the effect was investigated.
# Therefore, it is supposed that the compounds of the present invention activated the guanylate cyclase on a continued basis whereby the blood vessel was continuously relaxed.
# [4] = tested on: circumflex branch of the left coronary artery; assay: Effect of various pharmaceuticals on coronary blood flow increase by administration of compound A; assay type: in vivo, mongrel adult dogs; details: 1.0 mM in artery
# Protocol: The compound A was administered for four minutes, by the same manner as in Example 6, to a control group, to a group (LNAME-treated group) which was pretreated with a methyl ester of NG-nitro-L-arginine which was an inhibitor for the production of nitrogen monoxide caused by endothelium (by administering to the coronary artery at the dose of 200 μM for six minutes), to a group (8PT-treated group) which was pretreated with 8-phenyltheophylline which was an adenosnine antagonist (by administering to the coronary artery at the dose of 30 ng/kg/minute) an a group (autonomic nerve blocking group) which was pretreated with a pharmacological autonomic blocking agent (by an intravenous administration of 0.1 mg/kg of atropine, 1 mg/kg of propranolol and 2 mg/kg of phentolamine) to make the concentration of the compound A in the coronary artery 1.0 mM whereby the results were compared.
# [5] = tested on: circumflex branch of the left coronary artery; assay: Test on the relaxation of coronary arteries: coronary blood flow and blood flow status (haemodynamics) in anesthetized open-chest dogs, intracoronary administration; assay type: in vivo, mongrel adult dogs; details: for Blood Flow at Rotation Branch: 4 min
# Protocol: Twenty mongrel adult dogs were anesthetized with 30 mg/kg pentobarbital, their breasts were opened under an artificial respiration and heparin (3,000 IU/kg; each 1,000 IU/mg administered intravenously every 30 minutes thereafe) and aspirin (17 mg/kg) were administered. Then a cannula was inserted near the circumflex branch of the left coronary artery and a perfusion was conducted by means of a bypath from the whole left carotid artery. Coronary blood flow was measured, by an electromagnetic blood flowmeter (MFV-3200 manufactured by Nippon Koden) via a probe for measuring the blood flow (manufactured by Nippon Koden) located at the center of the bypath while the artery pressure and the left cardiac pressure were measured at an underarm artery and by means of a catheter inserted from the apex, respectively.
smiles,measurement,setting,value
CC1(C)N=C(c2ccc(C(=O)O)cc2)N(O)C1(C)C,clearance (in words),[1],very prompt
same,excretion from the kidney,[1],rapidly excreted from the kidney
same,blood flow after the administration,"[2]; 1.0 mM (FIG. 3), before the administration 22.4 ml/minute",22.8 mL/min
same,pharmacological action (in words),[2]; after reducing with ascorbic acid,completely disappeared
same,change in the blood flow (in words),"[2]; before vs after the administration, FIG. 3",no changes in the blood flow
CC1(C)N=C(c2ccc(C(=O)O)cc2)N([O])C1(C)C [Compound A],influence of the endothelium on coronary artery relaxation (in words),"[3]; 1 μM to 1 mM, with vs without endothelium, FIG. 4",stronger than that in the absence of the endothelium
same,EC50,[3]; no Methylene Blue,10 µM
same,EC50,"[3]; with Methylene Blue 10 μM, 30 minutes before, p<0.01",79.4 µM
same,% Increase of blood flow in rotary branch,[4]; 8PT-treated group,120 ± 10%
same,"Blood Flow in Rotary Branch, after administration of Compd A","[4]; 8PT-treated group, before 23.1 ± 2.7",51.6 ± 5.8 mL/min
same,influence of pretreatments on the action of the compound A (in words),"[4]; LNAME, 8-phenyltheophylline, autonomic blockade",none of the pharmaceuticals affected on the action of the compound A
same,% Increase of blood flow in rotary branch,[4]; LNAME-treated group,155 ± 28%
same,"Blood Flow in Rotary Branch, after administration of Compd A","[4]; LNAME-treated group, before 26.1 ± 2.7",67.0 ± 11.5 mL/min
same,% Increase of blood flow in rotary branch,[4]; autonomic nerve blocked group,137 ± 56%
same,"Blood Flow in Rotary Branch, after administration of Compd A","[4]; autonomic nerve blocked group, before 19.5 ± 3.3",49.3 ± 18.5 mL/min
same,% Increase of blood flow in rotary branch,[4]; control group,164 ± 31%
same,"Blood Flow in Rotary Branch, after administration of Compd A","[4]; control group, before 32.0 ± 2.1",84.9 ± 13.7 mL/min
same,reduction in blood (stability of N-oxyl radical),"[1]; by ascorbic acid, etc. in blood","quickly reduced by ascorbic acid, etc. in blood"
same,clearance (in words),[1],very prompt
same,excretion from the kidney,[1],rapidly excreted from the kidney
same,total amount of compound A remaining in the blood,[1]; one minute after the administration,about 0.3%
same,Av. Blood Pressure,[5]; 0.1 mM in artery,130 ± 8 mmHg
same,Left Cardiac dp/dt,[5]; 0.1 mM in artery,1132 ± 60 mmHg/sec
same,Pres. at Final Stage of Left Cardiac Dilation,[5]; 0.1 mM in artery,11 ± 2 mmHg
same,Pulse Numbers,[5]; 0.1 mM in artery,155 ± 8 min⁻¹
same,Blood Flow at Rotation Branch,[5]; 0.1 mM in artery,29.8 ± 3.6 mL/min
same,Av. Blood Pressure,[5]; 0.3 mM in artery,133 ± 8 mmHg
same,Left Cardiac dp/dt,[5]; 0.3 mM in artery,1210 ± 63 mmHg/sec
same,Pres. at Final Stage of Left Cardiac Dilation,[5]; 0.3 mM in artery,10 ± 2 mmHg
same,Pulse Numbers,[5]; 0.3 mM in artery,154 ± 8 min⁻¹
same,Blood Flow at Rotation Branch,"[5]; 0.3 mM in artery, p < 0.05 to the control",41.5 ± 5.7 mL/min
same,duration of effect on coronary blood flow after completion of the administration,[5]; 1 mM for four minutes,≥ 30 min
same,increase in coronary blood flow (fold),[5]; 1 mM for four minutes,about three
same,increasing rate of coronary blood flow,[5]; 1 mM for four minutes,ca. 200%
same,Av. Blood Pressure,[5]; 1.0 mM in artery,132 ± 7 mmHg
same,Left Cardiac dp/dt,[5]; 1.0 mM in artery,1241 ± 50 mmHg/sec
same,Pres. at Final Stage of Left Cardiac Dilation,[5]; 1.0 mM in artery,10 ± 2 mmHg
same,Pulse Numbers,[5]; 1.0 mM in artery,157 ± 8 min⁻¹
same,Blood Flow at Rotation Branch,"[5]; 1.0 mM in artery, p < 0.01 to the control, 0.1 mM and 0.3 mM",89.7 ± 10.6 mL/min
same,blood pressure (in words),"[5]; 0.1, 0.3 and 1.0 mM in artery",no change
same,contracting power of the heart (in words),"[5]; 0.1, 0.3 and 1.0 mM in artery",rather improved
same,left cardiac dp/dt (in words),"[5]; 0.1, 0.3 and 1.0 mM in artery",increasing tendency
same,pressure at the final stage of the left cardiac dilation (in words),"[5]; 0.1, 0.3 and 1.0 mM in artery",no change
same,pulse numbers (in words),"[5]; 0.1, 0.3 and 1.0 mM in artery",no change
same,coronary blood flow (in words),"[5]; 0.1, 0.3 and 1.0 mM in artery, FIG. 2",significant increase in the coronary blood flow
same,side effect (in words),[5]; intracoronary administration,no side effect was noted
"CN(C)c1ccc2nc3ccc(=[N+](C)C)cc-3sc2c1 [Methylene Blue, reference compound]",inhibition of the coronary artery relaxing action of compound A (in words),"[3]; endothelium absent, 10 μM, 30 minutes before",found to inhibit that

# Reference: patent US5536744A, “Imidazolinoxyl derivatives” (Dojindo Laboratories, priority 1993, dated 1996)
